Six compounds from patent US9572799B2, “Pyrazolopyridine derivatives for use in the treatment of bladder cancer” (SANOFI, priority 2013, dated 2017) can be followed below.

SMILES strings stand for the structures.

In general, melting point refers to the temperature of the solid-liquid transition. For orientation: inhibition means the relative decrease from the control value, in per cent.

For data set [1], the system named is bladder cancer tumour cells of TCC97-7 type carrying the Ser249Cys mutation of FGF receptor 3. Description: Inhibition of serum-induced proliferation of TCC97-7 bladder cancer cells (cell-covered surface area, Incucyte). Conditions: 72 h, TCC97-7 cell line in the presence of serum, after 3 days. Type of data set: cell-based. Here is the method: Evaluation of the Capacity of the FGF-R Antagonists to Inhibit Serum-Induced Proliferation of Bladder Cancer Tumour Cells of TCC97-7 Type Carrying the Ser249Cys Mutation of FGF Receptor 3
To do this, 2000 cells are seeded in the morning in 50 μl of complete medium (Ham-F/12, 1% FCS, 2 mM glutamine, non-essential amino acids, sodium pyruvate, 1% insulin/transferrin/selenium, hydrocortisone). In the evening, 50 μl of the various compounds are added at 2 or 20 μM after dilution in complete culture medium in order to obtain final concentrations of 1 or 10 μM. After 3 days, cell proliferation is evaluated by measuring the cell-covered surface area of a well of a 96 well plate. This surface area is measured using an Incucyte apparatus (Essen BioScience). The percentage inhibition of the cell proliferation is calculated by considering the surface area occupied by the TCC97-7 cells cultured in the absence of FGF-R antagonists to be 0% inhibition. 100% inhibition would correspond to a well no longer containing cells.
Thus, compounds 1 to 24 are capable of inhibiting TCC97-7 cell proliferation by more than 20% at the dose of 1 or 10 μM. (Table No. 2).

In data set [2] the test system is TCC97-7 bladder cancer cells carrying the Ser249Cys mutation of FGF-R3. Description: Reduction of intracellular ATP content of TCC97-7 cells in serum-supplemented medium (Cell Titer-Glo). It counts as cell-based. Particulars: 72 h, TCC97-7 cells cultured in the presence of serum, after 3 days, read-out: Inhibition of the amount of intracellular ATP (%). Here is the method: Evaluation of the Capacity of FGF-R Antagonists to Reduce the ATP Content of TCC97-7 Bladder Cancer Cells Carrying the Ser249Cys Mutation of FGF-R3, Cultured in a Serum-Supplemented Medium
To do this, 3000 cells are seeded in 50 μl of complete medium (Ham-F/12, 1% FCS, 2 mM glutamine, non-essential amino acids, sodium pyruvate, 1% insulin/transferrin/selenium, hydrocortisone). 16 hours later, 50 μl of the various compounds are added at 2 and 20 μM after dilution in complete culture medium in order to obtain final concentrations of 1 and 10 μM. After 3 days, the ATP content of the cells is measured using the Cell Titer-Glo® Luminescent Cell Viability Assay kit (Promega, France) according to the supplier's recommendations. The percentage inhibition of the amount of intracellular ATP is calculated by considering the ATP content of the cells cultured in the absence of antagonist to be 0% inhibition. 100% inhibition would correspond to a well in which the ATP content is zero.
Thus, compounds 1 to 24 are capable of inhibiting the amount of intracellular ATP in TCC97-7 cells by more than 20% at the dose of 1 or 10 μM (Table No. 3).
(In general: Cellular ATP, detected with luciferase, serves as a proxy for viable cell number.)

With `CN(C)c1cccc(-c2cc(C(F)(F)F)c3c(-c4ccccc4)nn(C)c3n2)c1` [compound 3, Dimethyl-[3-(1-methyl-3-phenyl-4-trifluoromethyl-1H-pyrazolo[3,4-b]pyridin-6-yl)phenyl]amine], the melting point was 95 °C. In data set [1], the inhibition at 1 µM was -32.3% and the inhibition at 10 µM was 40%. Further, in data set [2], the inhibition at 1 µM turned out to be 21.3% and the inhibition at 10 µM is 47.7%.
Consider `O=c1[nH]c2ccc(-c3cc(C(F)(F)F)c4c(-c5ccccc5)n[nH]c4n3)cc2[nH]1` [compound 15, 5-(3-Phenyl-4-trifluoromethyl-1H-pyrazolo[3,4-b]pyridin-6-yl)-1,3-dihydrobenzoimidazol-2-one], for which the melting point turned out to be 380 °C. In data set [1], the inhibition at 1 µM was -3% and the inhibition at 10 µM turned out to be 29%. In data set [2], the inhibition at 1 µM was -11% and the inhibition at 10 µM stood at 19%.
The compound `Nc1ccc(-c2cc(C(F)(F)F)c3c(-c4ccccc4)n[nH]c3n2)cc1` [compound 16, 4-(3-Phenyl-4-trifluoromethyl-1H-pyrazolo[3,4-b]pyridin-6-yl)phenylamine] returned a melting point of 237 °C. For the same compound, in data set [2], the inhibition at 1 µM stood at 24% and the inhibition at 10 µM was found to be 38%.
Consider `COc1cccc(-c2n[nH]c3nc(-c4ccc(N)c(C#N)c4)cc(C(F)F)c23)c1` [compound 12, 2-Amino-5-[4-difluoromethyl-3-(3-methoxyphenyl)-1H-pyrazolo[3,4-b]pyridin-6-yl]benzonitrile], for which the melting point was 233 °C. Moreover, in data set [1], the inhibition at 1 µM came out at 12.1% and the inhibition at 10 µM was 95.8%. In addition, in data set [2], the inhibition at 1 µM was 23.8% and the inhibition at 10 µM was determined as 75.8%.
For `COc1ncc(-c2cc(C(F)(F)F)c3c(-c4ccccc4)nn(C)c3n2)cc1C#N` [compound 9, 2-Methoxy-5-(1-methyl-3-phenyl-4-trifluoromethyl-1H-pyrazolo[3,4-b]pyridin-6-yl)nicotinonitrile] the same measures were 250 °C, 27.6%, 79.7%, 12.3% and 69.3%.
For `N#Cc1cc(-c2cc(C(F)F)c3c(-c4cccnc4)n[nH]c3n2)ccc1N` [compound 11, 2-Amino-5-(4-difluoromethyl-3-pyridin-3-yl-1H-pyrazolo[3,4-b]pyridin-6-yl)benzonitrile] the same measures were 296 °C, 50.4%, 19.2%, 21.5% and 25.5%.
